According to patent publication US7655392B2, “Quenching methods for red blood cell inactivation process” (priority 2004, dated 2010):
Like-named read-outs stand apart in the source and are kept apart here.

System: Serratia marcescens
Format: cell-based
[1] = Table 2B: 0.2 mM PIC-1, then 20 mM glutathione+2 eq base after 1 min
[2] = Table 2B: 0.2 mM PIC-1, then 20 mM glutathione+2 eq base after 5 min
[3] = Table 2B: 0.2 mM PIC-1, then 20 mM glutathione+2 eq base after 10 min
[4] = Table 2B: 0.2 mM PIC-1, then 20 mM glutathione+2 eq base after 20 min
[5] = Table 2B: 0.2 mM PIC-1 and 2 mM glutathione, 0 eq base, simultaneous
[6] = Table 2B: 0.2 mM PIC-1 and 20 mM glutathione, 0 eq base, simultaneous
[7] = Table 2B: 20 mM glutathione+2 eq base, then 0.2 mM PIC-1 after 1 min
[8] = Table 2B: 20 mM glutathione+2 eq base, then 0.2 mM PIC-1 after 10 min
[9] = Table 5A: 0.2 mM PIC-1, then 20 mM GSH+2 eq base after 1 min
[10] = Table 5A: 10 mM Cys+10 mM GSH, 2 eq base each, then 0.2 mM PIC-1 after 10 min
[11] = Table 5A: 15 mM Cys+5 mM GSH, 2 eq base each, then 0.2 mM PIC-1 after 10 min
[12] = Table 5A: 20 mM Cys+2 eq base, then 0.2 mM PIC-1 after 10 min
[13] = Table 5A: 20 mM GSH+2 eq base, then 0.2 mM PIC-1 after 10 min
[14] = Table 5B: 0.2 mM PIC-1+2 mM GSH, 0 eq base, no delay
[15] = Table 5B: 5 mM Cys+2 eq base, then 0.2 mM PIC-1 after 5 min
[16] = Table 5B: 5 mM Cys+2 eq base, then 0.2 mM PIC-1 after 10 min
[17] = Table 5B: 5 mM Cys+2 eq base, then 0.2 mM PIC-1 after 20 min
[18] = Table 5B: 10 mM Cys+2 eq base, then 0.2 mM PIC-1 after 10 min
[19] = Table 5B: 15 mM Cys+2 eq base, then 0.2 mM PIC-1 after 10 min
[20] = Table 5B: 20 mM Cys+2 eq base, then 0.2 mM PIC-1 after 5 min
[21] = Table 5B: 20 mM Cys+2 eq base, then 0.2 mM PIC-1 after 10 min
[22] = Table 5B: 20 mM GSH+2 eq base, then 0.2 mM PIC-1 after 10 min
[23] = Table 5B: […] Cys+2 eq base, then 0.2 mM PIC-1 after 10 min

O=C(CCNc1c2ccccc2nc2ccccc12)OCCN(CCCl)CCCl [PIC-1]
Log S. marcescens reduction [1]: 3.36 Log
Log S. marcescens titer [1]: 3.40 Log
Log S. marcescens reduction [2]: 3.89 Log
Log S. marcescens titer [2]: 2.87 Log
Log S. marcescens reduction [3]: 4.96 Log
Log S. marcescens titer [3]: 1.80 Log
Log S. marcescens reduction [4]: 6.76 Log
Log S. marcescens titer [4]: 0.00 Log
Log S. marcescens reduction [5]: 5.25 Log
Log S. marcescens titer [5]: 1.51 Log
Log S. marcescens reduction [6]: 0.71 Log
Log S. marcescens titer [6]: 6.05 Log
Log S. marcescens reduction [7]: 3.66 Log
Log S. marcescens titer [7]: 3.10 Log
Log S. marcescens reduction [8]: 3.68 Log
Log S. marcescens titer [8]: 3.08 Log
Log S. marcescens reduction [9]: 2.7 Log
Log S. marcescens titer [9]: 4.8 Log
Log S. marcescens reduction [10]: 3.0 Log
Log S. marcescens titer [10]: 4.5 Log
Log S. marcescens reduction [11]: 3.7 Log
Log S. marcescens titer [11]: 3.8 Log
Log S. marcescens reduction [12]: 3.1 Log
Log S. marcescens titer [12]: 4.4 Log
Log S. marcescens reduction [13]: 3.4 Log
Log S. marcescens titer [13]: 4.1 Log
Log S. marcescens reduction [14]: 4.1 Log
Log S. marcescens titer [14]: 3.5 Log
Log S. marcescens reduction [15]: 3.2 Log
Log S. marcescens titer [15]: 4.4 Log
Log S. marcescens reduction [16]: 3.2 Log
Log S. marcescens titer [16]: 4.4 Log
Log S. marcescens reduction [17]: 2.9 Log
Log S. marcescens titer [17]: 4.7 Log
Log S. marcescens reduction [18]: 2.7 Log
Log S. marcescens titer [18]: 4.9 Log
Log S. marcescens reduction [19]: 3.1 Log
Log S. marcescens titer [19]: 4.5 Log
Log S. marcescens reduction [20]: 3.2 Log
Log S. marcescens titer [20]: 4.4 Log
Log S. marcescens reduction [21]: 3.0 Log
Log S. marcescens titer [21]: 4.6 Log
Log S. marcescens reduction [22]: 3.2 Log
Log S. marcescens titer [22]: 4.4 Log
Log S. marcescens reduction [23]: 3.7 Log
Log S. marcescens titer [23]: 3.9 Log
log inactivation (all conditions of Tables 5A, 5B, 5C (cysteine and/or glutathione, 0.2 mM PIC-1)): at least 3 log
inactivation difference from the standard condition (cysteine or glutathione quenching, Tables 5A-5C): 1-1.5 log
